# Experimental data published in US9132140B2, “Boronic acid derivatives and therapeutic uses thereof” (Rempex Pharmaceuticals, Inc., priority 2013, dated 2015).
# Experiments:
# [1] = test system: ECLM1019 (VIM, KPC); format: cell-based, Enterobacter cloacae
# Text: (§1) Several strains simultaneously expressing both class A and class B carbapenemases, which were constructed using conjugation, were also included in the panel.
# [2] = test system: ECL1082 (VIM-1); format: cell-based, Enterobacter cloacae
# Text: as §1
# [3] = test system: ECL1045 (VIM-1); format: cell-based, Enterobacter cloacae
# Text: as §1
# [4] = test system: KPM1108 (NDM, KPC); format: cell-based, Klebsiella pneumoniae
# Text: as §1
# [5] = test system: KPM1111 (NDM, KPC); format: cell-based, Klebsiella pneumoniae
# Text: as §1
# [6] = test system: KP1064 (KPC TEM SHV); format: cell-based, Klebsiella pneumoniae
# Text: as §1
# [7] = test system: KPM1097 (NDM, KPC); format: cell-based, Klebsiella pneumoniae
# Text: as §1
# [8] = test system: KP1098 (IMP-26 TEM SHV); format: cell-based, Klebsiella pneumoniae
# Text: as §1
# [9] = test system: KPM1107 (NDM, KPC); format: cell-based, Klebsiella pneumoniae
# Text: as §1
# [10] = test system: KP1065 (VIM-1, SHV-11); format: cell-based, Klebsiella pneumoniae
# Text: as §1
# [11] = test system: KP1084 (KPC-3, SHV-11, TEM-1); format: cell-based, Klebsiella pneumoniae
# Text: as §1
# [12] = test system: KPM1109 (NDM, KPC); format: cell-based, Klebsiella pneumoniae
# Text: as §1
# [13] = test system: KP1014 (Vim-1, TEM, SHV); format: cell-based, Klebsiella pneumoniae
# Text: as §1
# [14] = test system: KP1070 (KPC TEM SHV); format: cell-based, Klebsiella pneumoniae
# Text: as §1
# [15] = test system: KP1054 (VIM-1, SHV-11); format: cell-based, Klebsiella pneumoniae
# Text: as §1
smiles,measurement,setting,value
"Nn1cnnc1S[C@H]1Cc2cccc(C(=O)O)c2OB1O [Compound 14, (R)-3-(4-amino-4H-1,2,4-triazol-3-ylthio)-2-hydroxy-3,4-dihydro-2H-benzo[e][1,2]oxaborinine-8-carboxylic acid]",Imipenem + 14 MIC,[1],X (key: X: MIC of less than 1 μg/mL; Y: MIC of 1 μg/mL to 10 μg/mL; Z: MIC of greater than 10 μg/mL)
same,Meropenem + 14 MIC,[1],X (key: X: MIC of less than 1 μg/mL; Y: MIC of 1 μg/mL to 10 μg/mL; Z: MIC of greater than 10 μg/mL)
same,Imipenem + 14 MIC,[2],X (key: X: MIC of less than 1 μg/mL; Y: MIC of 1 μg/mL to 10 μg/mL; Z: MIC of greater than 10 μg/mL)
same,Meropenem + 14 MIC,[2],X (key: X: MIC of less than 1 μg/mL; Y: MIC of 1 μg/mL to 10 μg/mL; Z: MIC of greater than 10 μg/mL)
same,Imipenem + 14 MIC,[3],X (key: X: MIC of less than 1 μg/mL; Y: MIC of 1 μg/mL to 10 μg/mL; Z: MIC of greater than 10 μg/mL)
same,Meropenem + 14 MIC,[3],X (key: X: MIC of less than 1 μg/mL; Y: MIC of 1 μg/mL to 10 μg/mL; Z: MIC of greater than 10 μg/mL)
same,Imipenem + 14 MIC,[4],Y (key: X: MIC of less than 1 μg/mL; Y: MIC of 1 μg/mL to 10 μg/mL; Z: MIC of greater than 10 μg/mL)
same,Meropenem + 14 MIC,[4],Z (key: X: MIC of less than 1 μg/mL; Y: MIC of 1 μg/mL to 10 μg/mL; Z: MIC of greater than 10 μg/mL)
same,Imipenem + 14 MIC,[5],X (key: X: MIC of less than 1 μg/mL; Y: MIC of 1 μg/mL to 10 μg/mL; Z: MIC of greater than 10 μg/mL)
same,Meropenem + 14 MIC,[5],X (key: X: MIC of less than 1 μg/mL; Y: MIC of 1 μg/mL to 10 μg/mL; Z: MIC of greater than 10 μg/mL)
same,Imipenem + 14 MIC,[6],X (key: X: MIC of less than 1 μg/mL; Y: MIC of 1 μg/mL to 10 μg/mL; Z: MIC of greater than 10 μg/mL)
same,Meropenem + 14 MIC,[6],Y (key: X: MIC of less than 1 μg/mL; Y: MIC of 1 μg/mL to 10 μg/mL; Z: MIC of greater than 10 μg/mL)
same,Imipenem + 14 MIC,[7],X (key: X: MIC of less than 1 μg/mL; Y: MIC of 1 μg/mL to 10 μg/mL; Z: MIC of greater than 10 μg/mL)
same,Meropenem + 14 MIC,[7],X (key: X: MIC of less than 1 μg/mL; Y: MIC of 1 μg/mL to 10 μg/mL; Z: MIC of greater than 10 μg/mL)
same,Imipenem + 14 MIC,[8],Y (key: X: MIC of less than 1 μg/mL; Y: MIC of 1 μg/mL to 10 μg/mL; Z: MIC of greater than 10 μg/mL)
same,Meropenem + 14 MIC,[8],Z (key: X: MIC of less than 1 μg/mL; Y: MIC of 1 μg/mL to 10 μg/mL; Z: MIC of greater than 10 μg/mL)
same,Imipenem + 14 MIC,[9],X (key: X: MIC of less than 1 μg/mL; Y: MIC of 1 μg/mL to 10 μg/mL; Z: MIC of greater than 10 μg/mL)
same,Meropenem + 14 MIC,[9],X (key: X: MIC of less than 1 μg/mL; Y: MIC of 1 μg/mL to 10 μg/mL; Z: MIC of greater than 10 μg/mL)
same,Imipenem + 14 MIC,[10],X (key: X: MIC of less than 1 μg/mL; Y: MIC of 1 μg/mL to 10 μg/mL; Z: MIC of greater than 10 μg/mL)
same,Meropenem + 14 MIC,[10],Z (key: X: MIC of less than 1 μg/mL; Y: MIC of 1 μg/mL to 10 μg/mL; Z: MIC of greater than 10 μg/mL)
same,Imipenem + 14 MIC,[11],Y (key: X: MIC of less than 1 μg/mL; Y: MIC of 1 μg/mL to 10 μg/mL; Z: MIC of greater than 10 μg/mL)
same,Meropenem + 14 MIC,[11],Y (key: X: MIC of less than 1 μg/mL; Y: MIC of 1 μg/mL to 10 μg/mL; Z: MIC of greater than 10 μg/mL)
same,Imipenem + 14 MIC,[12],X (key: X: MIC of less than 1 μg/mL; Y: MIC of 1 μg/mL to 10 μg/mL; Z: MIC of greater than 10 μg/mL)
same,Meropenem + 14 MIC,[12],Y (key: X: MIC of less than 1 μg/mL; Y: MIC of 1 μg/mL to 10 μg/mL; Z: MIC of greater than 10 μg/mL)
same,Imipenem + 14 MIC,[13],X (key: X: MIC of less than 1 μg/mL; Y: MIC of 1 μg/mL to 10 μg/mL; Z: MIC of greater than 10 μg/mL)
same,Meropenem + 14 MIC,[13],X (key: X: MIC of less than 1 μg/mL; Y: MIC of 1 μg/mL to 10 μg/mL; Z: MIC of greater than 10 μg/mL)
same,Imipenem + 14 MIC,[14],X (key: X: MIC of less than 1 μg/mL; Y: MIC of 1 μg/mL to 10 μg/mL; Z: MIC of greater than 10 μg/mL)
same,Meropenem + 14 MIC,[14],X (key: X: MIC of less than 1 μg/mL; Y: MIC of 1 μg/mL to 10 μg/mL; Z: MIC of greater than 10 μg/mL)
same,Imipenem + 14 MIC,[15],X (key: X: MIC of less than 1 μg/mL; Y: MIC of 1 μg/mL to 10 μg/mL; Z: MIC of greater than 10 μg/mL)
same,Meropenem + 14 MIC,[15],X (key: X: MIC of less than 1 μg/mL; Y: MIC of 1 μg/mL to 10 μg/mL; Z: MIC of greater than 10 μg/mL)
